In patent US7709503B2, “Pyrrol derivatives with antibacterial activity” (AstraZeneca AB, priority 2003, dated 2010):
Converted amounts (≈) assume the structure as drawn.

Legend:
Streptococcus pneumoniae = experiment: Bacterial susceptibility testing in liquid media (Minimum Inhibitory Concentration); format: cell-based; details: against Streptococcus pneumoniae, 37 degrees C., 24 hrs, lowest concentration able to reduce growth by 80% or more
Experimental: Compounds were tested for antimicrobial activity by susceptibility testing in liquid media. Compounds were dissolved in dimethylsulfoxide and tested in 10 doubling dilutions in the susceptibility assays. The organisms used in the assay were grown overnight on suitable agar media and then suspended in a liquid medium appropriate for the growth of the organism. The suspension was a 0.5 McFarland and a further 1 in 10 dilution was made into the same liquid medium to prepare the final organism suspension in 100 μL. Plates were incubated under appropriate conditions at 37 degrees C. for 24 hrs prior to reading. The Minimum Inhibitory Concentration was determined as the lowest drug concentration able to reduce growth by 80% or more.

Row | MIC (Streptococcus pneumoniae) [µg/mL] | melting point [°C] | SMILES
1 | 2 (≈ 5.07 µM) | – | Cc1[nH]c(C(=O)NC2CCN(c3nc(C#N)cs3)CC2)cc1Br [Example 130, 4-Bromo-N-[1-(4-cyano-1,3-thiazol-2-yl)piperidin-4-yl]-5-methyl-1H-pyrrole-2-carboxamide]
2 | – | 254 to 256 | Cc1[nH]c(C(=O)NC2CCN(c3cc(C(=O)O)nc4ccccc34)CC2)c(Cl)c1Cl [Example 225, 4-(4-{[(3,4-Dichloro-5-methyl-1H-pyrrol-2-yl)carbonyl]amino}piperidin-1-yl)quinoline-2-carboxylic acid]
3 | – | 232 to 234 | Cc1[nH]c(C(=O)NC2CCN(c3cc(C(=O)O)on3)CC2)c(Cl)c1Cl [Example 226, 3-(4-{[(3,4-Dichloro-5-methyl-1H-pyrrol-2-yl)carbonyl]amino}piperidin-1-yl)isoxazole-5-carboxylic acid]
